# In the NIST ThermoML archive (doi:10.1016/j.jct.2015.08.006):
# ± gives the expanded uncertainty stated by the source.
# Conditions: 298.44 K, Pendant drop shape
compound,measurement,value
O [water],surface tension liquid-gas,71.9 ± 0.6 mN/m
